These results are taken from ChEMBL document CHEMBL3585342, “Exploring the isoform selectivity of TGX-221 related pyrido[1,2-a]pyrimidinone-based Class IA PI 3-kinase inhibitors: synthesis, biological evaluation and molecular modelling” (Bioorg Med Chem, 2015).

Some results are limits rather than exact numbers.

Test [1] has as its target Phosphatidylinositol 4,5-bisphosphate 3-kinase catalytic subunit alpha isoform (Homo sapiens, UniProt P42336). In kind it is cell-based, Sf9.
Description: Inhibition of N-terminal His-tagged human p110alpha expressed in Sf9 cells co-expressing p85alpha regulatory subunit using phosphatidylinositol substrate and [gamma-33P]-ATP by basic thin layer chromatography technique based lipid kinase assay
Test [2] addresses Phosphatidylinositol 4,5-bisphosphate 3-kinase catalytic subunit beta isoform (Homo sapiens, UniProt P42338). The test is classed as cell-based, Sf9.
Description: Inhibition of N-terminal His-tagged human p110beta expressed in Sf9 cells co-expressing p85alpha regulatory subunit using phosphatidylinositol substrate and [gamma-33P]-ATP by basic thin layer chromatography technique based lipid kinase assay
The target in test [3] is T1, Phosphatidylinositol 4,5-bisphosphate 3-kinase catalytic subunit delta isoform (Homo sapiens, UniProt O00329).
T1 sequence (O00329 whole entry): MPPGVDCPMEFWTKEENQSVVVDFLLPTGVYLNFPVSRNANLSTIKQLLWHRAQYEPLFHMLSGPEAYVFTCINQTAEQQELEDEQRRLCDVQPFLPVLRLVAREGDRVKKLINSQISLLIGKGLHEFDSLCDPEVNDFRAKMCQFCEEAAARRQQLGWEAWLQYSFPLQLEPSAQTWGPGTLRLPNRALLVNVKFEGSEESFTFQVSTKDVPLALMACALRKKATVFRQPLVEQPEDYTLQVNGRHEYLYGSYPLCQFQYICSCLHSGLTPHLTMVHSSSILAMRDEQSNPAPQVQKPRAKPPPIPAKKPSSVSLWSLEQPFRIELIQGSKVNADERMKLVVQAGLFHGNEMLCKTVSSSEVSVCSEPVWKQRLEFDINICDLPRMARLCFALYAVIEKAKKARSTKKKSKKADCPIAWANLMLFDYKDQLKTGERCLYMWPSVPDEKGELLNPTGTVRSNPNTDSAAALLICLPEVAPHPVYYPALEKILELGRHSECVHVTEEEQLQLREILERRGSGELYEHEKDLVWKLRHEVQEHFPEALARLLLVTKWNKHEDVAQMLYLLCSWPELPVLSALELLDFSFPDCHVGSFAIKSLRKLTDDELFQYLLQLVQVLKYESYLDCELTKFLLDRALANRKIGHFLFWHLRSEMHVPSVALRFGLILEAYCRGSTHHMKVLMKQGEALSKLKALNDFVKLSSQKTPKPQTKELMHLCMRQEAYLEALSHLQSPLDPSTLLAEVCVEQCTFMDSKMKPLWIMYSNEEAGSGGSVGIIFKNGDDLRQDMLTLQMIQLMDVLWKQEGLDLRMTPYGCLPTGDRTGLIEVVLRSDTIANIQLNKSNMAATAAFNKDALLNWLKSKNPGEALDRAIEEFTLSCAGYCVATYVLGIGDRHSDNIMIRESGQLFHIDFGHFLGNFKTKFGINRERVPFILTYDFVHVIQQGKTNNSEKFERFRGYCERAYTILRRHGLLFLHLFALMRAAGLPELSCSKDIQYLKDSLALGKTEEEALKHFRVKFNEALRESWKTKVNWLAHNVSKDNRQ
In kind it is cell-based, Sf9.
Description: Inhibition of N-terminal His-tagged human p110delta expressed in Sf9 cells co-expressing p85alpha regulatory subunit using phosphatidylinositol substrate and [gamma-33P]-ATP by basic thin layer chromatography technique based lipid kinase assay

A short description of test [4]: Inhibition of cell proliferation of human NZB5 cells containing wild-type p110alpha gene incubated for 5 days by [3H]thymidine incorporation assay. In kind it is functional, cell-based.
A short description of test [5]: Inhibition of cell proliferation of human NZOV9 cells containing wild-type p53 protein and p110alpha Y1021C mutant incubated for 5 days by [3H]thymidine incorporation assay. The test is classed as functional, cell-based.

Chain of Phosphatidylinositol 4,5-bisphosphate 3-kinase catalytic subunit alpha isoform (P42336 whole entry, canonical isoform): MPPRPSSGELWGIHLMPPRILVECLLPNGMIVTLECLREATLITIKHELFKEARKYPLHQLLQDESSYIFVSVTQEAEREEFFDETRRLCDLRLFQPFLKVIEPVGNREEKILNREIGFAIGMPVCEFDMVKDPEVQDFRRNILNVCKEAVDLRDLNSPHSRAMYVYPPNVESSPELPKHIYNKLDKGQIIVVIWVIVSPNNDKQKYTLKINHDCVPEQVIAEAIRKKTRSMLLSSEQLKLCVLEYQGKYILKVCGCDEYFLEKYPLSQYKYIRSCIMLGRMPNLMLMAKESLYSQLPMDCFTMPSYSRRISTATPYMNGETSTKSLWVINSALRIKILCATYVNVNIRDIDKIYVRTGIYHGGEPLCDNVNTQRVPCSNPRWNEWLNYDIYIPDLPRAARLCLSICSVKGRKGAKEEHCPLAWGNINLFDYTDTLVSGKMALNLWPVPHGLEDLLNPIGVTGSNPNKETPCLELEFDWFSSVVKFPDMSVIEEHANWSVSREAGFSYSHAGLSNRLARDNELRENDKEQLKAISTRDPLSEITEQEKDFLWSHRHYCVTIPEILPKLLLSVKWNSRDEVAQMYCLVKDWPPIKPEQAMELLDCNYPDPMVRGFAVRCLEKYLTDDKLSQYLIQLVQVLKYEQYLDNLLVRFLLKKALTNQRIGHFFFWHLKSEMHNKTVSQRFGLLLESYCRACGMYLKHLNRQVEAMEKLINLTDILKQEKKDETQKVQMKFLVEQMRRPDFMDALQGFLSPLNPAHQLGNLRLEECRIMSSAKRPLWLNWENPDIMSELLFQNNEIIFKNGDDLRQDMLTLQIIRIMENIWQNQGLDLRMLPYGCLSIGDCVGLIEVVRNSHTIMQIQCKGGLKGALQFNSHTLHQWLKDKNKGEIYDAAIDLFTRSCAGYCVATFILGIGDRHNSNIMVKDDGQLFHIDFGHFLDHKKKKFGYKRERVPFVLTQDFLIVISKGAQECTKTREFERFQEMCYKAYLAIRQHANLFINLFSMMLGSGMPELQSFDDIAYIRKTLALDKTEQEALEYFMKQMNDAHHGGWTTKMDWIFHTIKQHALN
Chain of Phosphatidylinositol 4,5-bisphosphate 3-kinase catalytic subunit beta isoform (P42338 whole entry, canonical isoform): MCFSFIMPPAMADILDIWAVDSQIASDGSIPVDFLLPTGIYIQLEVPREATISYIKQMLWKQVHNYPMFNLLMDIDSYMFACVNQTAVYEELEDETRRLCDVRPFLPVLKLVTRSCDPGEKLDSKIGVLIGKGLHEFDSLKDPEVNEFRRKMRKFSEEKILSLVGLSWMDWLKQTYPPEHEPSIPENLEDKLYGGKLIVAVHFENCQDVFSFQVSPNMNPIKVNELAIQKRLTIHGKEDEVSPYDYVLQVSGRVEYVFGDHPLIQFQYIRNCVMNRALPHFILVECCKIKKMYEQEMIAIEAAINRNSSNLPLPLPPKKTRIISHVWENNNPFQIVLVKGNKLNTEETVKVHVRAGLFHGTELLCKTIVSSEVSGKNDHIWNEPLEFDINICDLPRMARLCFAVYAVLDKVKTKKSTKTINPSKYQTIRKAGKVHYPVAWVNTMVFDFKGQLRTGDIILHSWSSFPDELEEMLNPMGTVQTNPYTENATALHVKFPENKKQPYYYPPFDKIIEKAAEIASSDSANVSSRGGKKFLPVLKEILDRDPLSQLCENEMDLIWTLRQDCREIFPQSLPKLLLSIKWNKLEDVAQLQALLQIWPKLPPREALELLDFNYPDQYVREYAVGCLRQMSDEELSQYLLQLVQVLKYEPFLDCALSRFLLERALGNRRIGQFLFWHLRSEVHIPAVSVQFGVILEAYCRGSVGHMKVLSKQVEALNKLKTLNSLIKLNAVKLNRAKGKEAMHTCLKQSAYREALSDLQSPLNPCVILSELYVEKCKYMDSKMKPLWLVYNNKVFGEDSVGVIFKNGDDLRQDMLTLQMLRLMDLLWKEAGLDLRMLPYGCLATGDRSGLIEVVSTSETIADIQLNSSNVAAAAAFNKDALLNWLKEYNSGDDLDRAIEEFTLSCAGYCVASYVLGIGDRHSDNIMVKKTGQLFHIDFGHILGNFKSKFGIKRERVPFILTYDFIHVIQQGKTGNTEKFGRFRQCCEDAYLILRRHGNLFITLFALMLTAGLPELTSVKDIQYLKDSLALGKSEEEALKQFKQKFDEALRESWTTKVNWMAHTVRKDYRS

In the case of `N#Cc1ccc(OCc2cccn3c(=O)cc(N4CCOCC4)nc23)cc1`, the half-inhibitory concentration (IC50) in test [1] is over 10 µM; in test [2], 1 µM; in test [3], 1.5 µM; in test [4], over 20 µM; in test [5] it was 18 µM.

As to `Cc1cc(Nc2ccccc2)c2nc(N3CCOCC3)cc(=O)n2c1`, the IC50 in test [1] is 1.7 µM; in test [2], 0.45 µM; in test [3], 0.41 µM; in test [4] it was 1.2 µM; in test [5], 3 µM.

As to `Cc1cc(N(C)c2ccccc2)c2nc(N3CCOCC3)cc(=O)n2c1`, the IC50 in test [1] worked out at 4.4 µM; in test [2], 0.67 µM; in test [3] it was 0.9 µM; in test [4], 2 µM; in test [5], 5 µM.

With `Cc1cccc(Nc2cc(C)cn3c(=O)cc(N4CCOCC4)nc23)c1`, the IC50 in test [1] was over 1 µM; in test [2], 1.2 µM; in test [3], 0.47 µM; in test [4], 0.9 µM; in test [5], 0.6 µM.

As to `Cc1ccc(Nc2cc(C)cn3c(=O)cc(N4CCOCC4)nc23)cc1`, the IC50 in test [1] turned out to be 2.9 µM; in test [2] it was 3.2 µM; in test [3], 1 µM; in test [4] it was 1 µM; in test [5], 1.6 µM.

On to `Cc1cc(Nc2c(C)cccc2C)c2nc(N3CCOCC3)cc(=O)n2c1`, for which the IC50 in test [1] worked out at 3.9 µM; in test [2], 2.1 µM; in test [3] it was 0.5 µM; in test [4], 1.5 µM; in test [5] it was 1.3 µM.

Regarding `Cc1cc(NCc2ccccc2)c2nc(N3CCOCC3)cc(=O)n2c1`, the IC50 in test [1] came out at 0.5 µM; in test [2], 0.15 µM; in test [3], 0.23 µM; in test [4] it was 0.1 µM; in test [5], 0.5 µM.

As to `Cc1cccc(CNc2cc(C)cn3c(=O)cc(N4CCOCC4)nc23)c1`, the IC50 is 0.4 µM in test [1]; 0.13 µM in test [2]; 0.2 µM in test [3]; 0.4 µM in test [4]; 1.3 µM in test [5].

Take `Cc1ccc(CNc2cc(C)cn3c(=O)cc(N4CCOCC4)nc23)cc1`: the IC50 was 0.9 µM in test [1]; 1.8 µM in test [2]; 0.64 µM in test [3]; 0.4 µM in test [4]; over 20 µM in test [5].

Take `Cc1cc(NCc2ccccn2)c2nc(N3CCOCC3)cc(=O)n2c1`: the half-inhibitory concentration (IC50) in test [1] stood at 2 µM; in test [2], 0.42 µM; in test [3], 0.8 µM; in test [4], 2.4 µM; in test [5], 7 µM.

As for `Cc1cc(NCc2cccnc2)c2nc(N3CCOCC3)cc(=O)n2c1`, the IC50 was over 10 µM in test [1]; 0.59 µM in test [2]; 0.45 µM in test [3]; 8.2 µM in test [4]; 7.9 µM in test [5].

Turning to `Cc1cc(NCc2ccncc2)c2nc(N3CCOCC3)cc(=O)n2c1`, the half-inhibitory concentration (IC50) in test [1] stood at 4.9 µM; in test [2], 4.2 µM; in test [3], 0.71 µM; in test [4], 14 µM; in test [5], 14 µM.

Regarding `Cc1cc(N[C@@H](C)c2ccccc2)c2nc(N3CCOCC3)cc(=O)n2c1`, the IC50 came to 2.2 µM in test [1]; 0.21 µM in test [2]; 0.27 µM in test [3]; 0.7 µM in test [4]; 0.6 µM in test [5].

Turning to `Cc1cc(N[C@H](C)c2ccccc2)c2nc(N3CCOCC3)cc(=O)n2c1`, the IC50 amounted to 2.7 µM in test [1]; 2.3 µM in test [2]; 0.8 µM in test [3]; 0.7 µM in test [4]; 0.8 µM in test [5].

Regarding `O=C(Nc1ccccc1)c1cccn2c(=O)cc(N3CCOCC3)nc12`, the IC50 in test [1] worked out at 0.49 µM; in test [2] it was 3.6 µM; in test [3], 0.15 µM; in test [4] it was 2 µM; in test [5], 7 µM.

Consider `Cc1ccccc1NC(=O)c1cccn2c(=O)cc(N3CCOCC3)nc12`, for which the IC50 is 1.8 µM in test [1]; 1.5 µM in test [2]; 0.53 µM in test [3]; over 20 µM in test [4]; 11 µM in test [5].

As to `Cc1cccc(NC(=O)c2cccn3c(=O)cc(N4CCOCC4)nc23)c1`, the IC50 in test [1] amounted to 0.85 µM; in test [2], 3.9 µM; in test [3] it was 0.3 µM; in test [4], 8 µM; in test [5], 2.8 µM.

Turning to `Cc1ccc(NC(=O)c2cccn3c(=O)cc(N4CCOCC4)nc23)cc1`, the IC50 in test [1] is 1.2 µM; in test [2] it was over 10 µM; in test [3] it was 0.14 µM; in test [4], over 20 µM; in test [5] it was over 20 µM.

As for `O=C(NCc1ccccn1)c1cccn2c(=O)cc(N3CCOCC3)nc12`, the IC50 was 4.8 µM in test [1]; over 10 µM in test [2]; over 10 µM in test [3]; 20 µM in test [4]; over 20 µM in test [5].

Consider `O=C(NCc1cccnc1)c1cccn2c(=O)cc(N3CCOCC3)nc12`, for which the IC50 in test [1] was 6.5 µM; in test [2], over 10 µM; in test [3], over 10 µM; in test [4] it was 18 µM; in test [5], over 20 µM.

For `O=C(NCc1ccncc1)c1cccn2c(=O)cc(N3CCOCC3)nc12`, the IC50 in test [1] was 6.4 µM; in test [2], over 10 µM; in test [3] it was over 10 µM; in test [4] it was 12 µM; in test [5] it was over 20 µM.

For `O=C(Nc1cccn2c(=O)cc(N3CCOCC3)nc12)c1ccccc1`, the IC50 in test [1] was 0.51 µM; in test [2], 1.8 µM; in test [3], 0.22 µM; in test [4], 10 µM; in test [5] it was 2.5 µM.

Turning to `Cc1ccccc1C(=O)Nc1cccn2c(=O)cc(N3CCOCC3)nc12`, the IC50 came out at 0.81 µM in test [1]; 2.4 µM in test [2]; 0.27 µM in test [3]; 5.5 µM in test [4]; 0.8 µM in test [5].

`Cc1cccc(C(=O)Nc2cccn3c(=O)cc(N4CCOCC4)nc23)c1`: the 50% inhibitory concentration (IC50) in test [1] amounted to 0.57 µM; in test [2] it was 1.8 µM; in test [3] it was 0.47 µM; in test [4], 6 µM; in test [5], 0.8 µM.

Turning to `Cc1ccc(C(=O)Nc2cccn3c(=O)cc(N4CCOCC4)nc23)cc1`, the IC50 in test [1] is 1.36 µM; in test [2], 1.9 µM; in test [3], 0.03 µM; in test [4] it was 0.9 µM; in test [5], 0.8 µM.

In the case of `O=c1cc(N2CCOCC2)nc2c(NS(=O)(=O)c3ccccc3)cccn12`, the IC50 was over 10 µM in test [1]; over 10 µM in test [2]; 1.7 µM in test [3]; 6 µM in test [4]; 0.5 µM in test [5].

On to `O=C(Nc1ccccc1)Nc1cccn2c(=O)cc(N3CCOCC3)nc12`, for which the IC50 came to 0.6 µM in test [1]; 0.63 µM in test [2]; 0.48 µM in test [3]; 7.2 µM in test [4]; 2.9 µM in test [5].

Turning to `O=C(Nc1cccn2c(=O)cc(N3CCOCC3)nc12)Oc1ccccc1`, the IC50 in test [1] was 9 µM; in test [2], 9.1 µM; in test [3], 1.8 µM; in test [4], 7 µM; in test [5], 2.5 µM.
